Test results as given in patent US20240158446A1, “CYCLIC COMPOUND HAVING SELECTIVE INHIBITORY ACTION ON KRAS OVER HRAS AND NRAS” (CHUGAI SEIYAKU KABUSHIKI KAISHA, priority 2021, published 2024).
Read-outs that look alike come from different tables or passages of the source. *1 amine or outer side, *2 acyl side, *3 side chain or, on linkers, in order; H or OH if unused. Where a SMILES comes first, the peptide text is derived from it. Bridges are numbered along the chain shown (N, C = ends). [ ]: non-standard residue; d: D form. The star is where a group is joined. hPhe(3,5-F2-4-CF3) = N[C@@H](CCc1cc(F)c(C(F)(F)F)c(F)c1)C(=O)O; hPhe(3-Cl-4-CF3) = N[C@@H](CCc1ccc(C(F)(F)F)c(Cl)c1)C(=O)O; X23 = C=CCCN([C@@H](Cc1ccc(C(F)(F)F)cc1)C(=O)[*:2])[*:1]; X36 = Cc1ccc(C[C@@H](C(=O)[*:2])N(CCC(F)(F)F)[*:1])cc1; NPrPhe(4-CF3) = CCCN[C@@H](Cc1ccc(C(F)(F)F)cc1)C(=O)O; NEtPhe(4-CF3) = CCN[C@@H](Cc1ccc(C(F)(F)F)cc1)C(=O)O; X13 = O=C([C@@H](N[*:1])C1CC(F)(F)C1)[*:2]; NMeGly(cPent) = CN[C@H](C(=O)O)C1CCCC1; Pro(4,4-F2) = O=C(O)[C@@H]1CC(F)(F)CN1; NMeD = CN[C@@H](CC(=O)O)C(=O)O; NMeL = CN[C@@H](CC(C)C)C(=O)O; Oxazolidin(3-yl) = C1CN(*)CO1; NMeAbu = CC[C@H](NC)C(=O)O; Ac6c = NC1(C(=O)O)CCCCC1; Morpholide = C1CN(*)CCO1; NMeA = CN[C@@H](C)C(=O)O; Ac5c = NC1(C(=O)O)CCCC1; Aze = O=C(O)[C@@H]1CCN1; Sar = CNCC(=O)O

Legend:
[1] = molecular target: GDP-bound KRAS wild-type protein (Homo sapiens, UniProt P01116); test: Binding to KRAS by surface plasmon resonance (SPR), Single Cycle Kinetics; details: GDP-bound KRAS wild-type protein, read-out: KRAS KD
[2] = molecular target: GDP-bound NRAS wild-type protein (Homo sapiens, UniProt P01111); test: Binding to NRAS by surface plasmon resonance (SPR), Single Cycle Kinetics; details: for NRAS/KRAS (ratio of KD value for NRAS to KD value for KRAS) / NRAS/KRAS (ratio of KD value with respect to NRAS to KD value with respect to KRAS): SPR, GDP-bound NRAS wild-type protein vs GDP-bound KRAS wild-type protein
[3] = molecular target: GDP-bound HRAS wild-type protein (Homo sapiens, UniProt P01112); test: Binding to HRAS by surface plasmon resonance (SPR), Single Cycle Kinetics; details: for HRAS/KRAS (ratio of KD value for HRAS to KD value for KRAS) / HRAS/KRAS (ratio of KD value with respect to HRAS to KD value with respect to KRAS): SPR, GDP-bound HRAS wild-type protein vs GDP-bound KRAS wild-type protein
[4] = SPR Single Cycle Kinetics, 1:1 binding model

Chain of GDP-bound KRAS wild-type protein (P01116 whole entry): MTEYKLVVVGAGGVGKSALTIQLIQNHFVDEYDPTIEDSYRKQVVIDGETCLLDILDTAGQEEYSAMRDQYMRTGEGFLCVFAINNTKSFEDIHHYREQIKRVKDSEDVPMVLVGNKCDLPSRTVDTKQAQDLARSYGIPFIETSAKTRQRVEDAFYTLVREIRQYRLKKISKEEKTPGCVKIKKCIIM
Chain of GDP-bound HRAS wild-type protein (P01112 whole entry): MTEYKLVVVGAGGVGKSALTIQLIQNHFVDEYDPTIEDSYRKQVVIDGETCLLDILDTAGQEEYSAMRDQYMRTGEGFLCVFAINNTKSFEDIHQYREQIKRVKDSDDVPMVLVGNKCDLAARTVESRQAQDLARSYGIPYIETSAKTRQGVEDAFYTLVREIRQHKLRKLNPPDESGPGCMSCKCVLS
Chain of GDP-bound NRAS wild-type protein (P01111 whole entry): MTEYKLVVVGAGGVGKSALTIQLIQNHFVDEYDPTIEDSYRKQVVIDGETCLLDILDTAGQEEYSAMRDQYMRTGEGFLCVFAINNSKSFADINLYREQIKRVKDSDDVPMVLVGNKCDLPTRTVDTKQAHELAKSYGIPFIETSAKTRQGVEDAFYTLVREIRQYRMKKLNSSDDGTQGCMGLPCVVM

Row | Compound | Kd ([1]; SPR, Single Cycle Kinetics) | NRAS/KRAS (ratio of KD value for NRAS to KD value for KRAS) [2] | HRAS/KRAS (ratio of KD value for HRAS to KD value for KRAS) [3] | Kd [1, 4] | NRAS/KRAS (ratio of KD value with respect to NRAS to KD value with respect to KRAS) [2] | HRAS/KRAS (ratio of KD value with respect to HRAS to KD value with respect to KRAS) [3] | NRAS/KRAS (ratio of KD value with respect to GDP-bound NRAS wild-type protein to KD value with respect to KRAS) ([2]; SPR KD ratio NRAS/KRAS, class symbols) | HRAS/KRAS (ratio of KD value with respect to GDP-bound HRAS wild-type protein to KD value with respect to KRAS) ([3]; SPR KD ratio HRAS/KRAS, class symbols)
1 | CCO[C@@H]1C[C@H]2C(=O)N(C)C3(CCC3)C(=O)N(C)[C@@H](C(CC)CC)C(=O)N(C)[C@H](C(=O)N(C)C)CC(=O)N(C)[C@@H](COC)C(=O)N[C@@H]([C@@H](C)CC)C(=O)N(C3CC3)CC(=O)N(C)[C@H]3C/C=C\CCN(C3=O)[C@@H](CC3CCCCC3)C(=O)N(C)CC(=O)N[C@@H](CCc3ccc(C(F)(F)F)c(OC)c3)C(=O)N2C1 [PP2339] | 2.6 nM | A (a compound having 10 or more and less than 20 is denoted as A) | A (a compound having 10 or more and less than 20 is denoted as A) |  |  |  |  | 
2 | C=CCCN1C(=O)CN(C)C(=O)CN(C)C(=O)[C@H]([C@@H](C)CC)NC(=O)[C@H](CC(C)C)N(C)C(=O)C[C@@H](C(=O)N2CCOCC2)N(C)C(=O)[C@H](C2CCCC2)N(C)C(=O)C2(CCCC2)NC(=O)[C@@H]2CCCN2C(=O)[C@H](CCc2ccc(C(F)(F)F)c(Cl)c2)NC(=O)CN(C)C(=O)[C@@H]1Cc1ccc(C(F)(F)F)cc1 [PP0129] ([NMeL]I[Sar][Sar][X23][Sar][hPhe(3-Cl-4-CF3)]P[Ac5c][NMeGly(cPent)][NMeD]-Morpholide; lactam N-11) |  | B (a compound having 3 or more and less than 10 is denoted as B) | C (A compound having a KD ratio of 0.1 or more and less than 3 is denoted as C) | 0.2 nM |  |  |  | 
3 | CC[C@H](C)[C@@H]1NC(=O)[C@H](CC(C)C)N(C)C(=O)C[C@@H](C(=O)N2CCOCC2)N(C)C(=O)[C@H](C2CCCC2)N(C)C(=O)C2(CCCCC2)NC(=O)[C@@H]2CCCN2C(=O)[C@H](CCc2ccc(C(F)(F)F)c(Cl)c2)NC(=O)CN(C)C(=O)[C@H](Cc2ccc(C(F)(F)F)cc2)N(CC)C(=O)[C@@H]2CCN2C(=O)[C@H](C)N(C)C1=O [PP0222] ([NMeL]I[NMeA][Aze][NEtPhe(4-CF3)][Sar][hPhe(3-Cl-4-CF3)]P[Ac6c][NMeGly(cPent)][NMeD]-Morpholide; lactam N-11) |  | C (A compound having a KD ratio of 0.1 or more and less than 3 is denoted as C) | C (A compound having a KD ratio of 0.1 or more and less than 3 is denoted as C) | 0.57 nM |  |  |  | 
4 | CCC[C@H]1C(=O)N[C@@H](C2CCCCC2)C(=O)N(C)CC(=O)N(C)[C@H]2C/C=C\CCN(C2=O)[C@@H](Cc2ccc(C(F)(F)F)cc2)C(=O)N(C)CC(=O)N[C@@H](CCc2ccc(C(F)(F)F)c(Cl)c2)C(=O)N2C[C@H](OCC)C[C@H]2C(=O)NC2(CC(C)(C)C2)C(=O)N(C)[C@@H]([C@@H](C)CC)C(=O)N(C)[C@H](C(=O)N(C)C)CC(=O)N1C [PP3015] | 2.2 nM | AA (a compound having 20 or more is denoted as AA) | A (a compound having 10 or more and less than 20 is denoted as A) |  |  |  |  | 
5 | CC[C@H](C)[C@@H]1NC(=O)[C@H](CC(C)C)N(C)C(=O)C[C@@H](C(=O)N2CCOCC2)N(C)C(=O)[C@H](C2CCCC2)N(C)C(=O)C2(CCCC2)NC(=O)[C@@H]2CCCN2C(=O)[C@H](CCc2ccc(C(F)(F)F)c(Cl)c2)NC(=O)CN(C)C(=O)[C@H](Cc2ccc(C(F)(F)F)cc2)N(CC)C(=O)[C@@H]2CCN2C(=O)[C@H](C)N(C)C1=O [PP0002] ([NMeL]I[NMeA][Aze][NEtPhe(4-CF3)][Sar][hPhe(3-Cl-4-CF3)]P[Ac5c][NMeGly(cPent)][NMeD]-Morpholide; lactam N-11) |  | C (A compound having a KD ratio of 0.1 or more and less than 3 is denoted as C) | C (A compound having a KD ratio of 0.1 or more and less than 3 is denoted as C) | 0.18 nM |  |  |  | 
6 | CCCN1C(=O)CN(C)C(=O)CN(C)C(=O)[C@H]([C@@H](C)CC)NC(=O)[C@H](CC)N(C)C(=O)C[C@@H](C(=O)N2CCOCC2)N(C)C(=O)[C@H](C2CCCC2)N(C)C(=O)C2(CCCC2)NC(=O)[C@@H]2CC(F)(F)CN2C(=O)[C@H](CCc2ccc(C(F)(F)F)c(Cl)c2)NC(=O)CN(C)C(=O)[C@@H]1Cc1ccc(C(F)(F)F)cc1 [PP0202] ([NMeAbu]I[Sar][Sar][NPrPhe(4-CF3)][Sar][hPhe(3-Cl-4-CF3)][Pro(4,4-F2)][Ac5c][NMeGly(cPent)][NMeD]-Morpholide; lactam N-11) |  | B (a compound having 3 or more and less than 10 is denoted as B) | C (A compound having a KD ratio of 0.1 or more and less than 3 is denoted as C) | 0.076 nM |  |  |  | 
7 | CC[C@H](C)[C@@H]1NC(=O)[C@H](CC(C)C)N(C)C(=O)C[C@@H](C(=O)N(C)C)N(C)C(=O)[C@H](C2CCCC2)N(C)C(=O)C2(CCCC2)NC(=O)[C@@H]2CCCN2C(=O)[C@H](CCc2cc(F)c(C(F)(F)F)c(F)c2)NC(=O)CN(C)C(=O)[C@H](Cc2ccc(C(F)(F)F)cc2)N2CCCC[C@@H](C2=O)N(C)C(=O)CN(C)C1=O [PP0569] |  |  |  | 0.034 nM | C (A compound having a KD ratio of 0.1 or more and less than 3 is denoted as C) | B (a compound having 3 or more and less than 10 is denoted as B) |  | 
8 | CCCN1C(=O)[C@@H]2CCN2C(=O)[C@H](C)N(C)C(=O)[C@H]([C@@H](C)CC)NC(=O)[C@H](CC(C)C)N(C)C(=O)C[C@@H](C(=O)N2CCOC2)N(C)C(=O)[C@H](C2CCCC2)N(C)C(=O)C2(CCCC2)NC(=O)[C@@H]2CCCN2C(=O)[C@H](CCc2ccc(C(F)(F)F)c(Cl)c2)NC(=O)CN(C)C(=O)[C@@H]1Cc1ccc(C(F)(F)F)cc1 [PP0183] ([NMeL]I[NMeA][Aze][NPrPhe(4-CF3)][Sar][hPhe(3-Cl-4-CF3)]P[Ac5c][NMeGly(cPent)][NMeD]-{Oxazolidin(3-yl)}; lactam N-11) |  | C (A compound having a KD ratio of 0.1 or more and less than 3 is denoted as C) | B (a compound having 3 or more and less than 10 is denoted as B) | 0.17 nM |  |  |  | 
9 | CC[C@H](C)[C@@H]1NC(=O)[C@H](CC(C)C)N(C)C(=O)C[C@@H](C(=O)N2CCOCC2)N(C)C(=O)[C@H](C2CCCC2)N(C)C(=O)C2(CCCC2)NC(=O)[C@@H]2CCCN2C(=O)[C@H](CCc2ccc(C(F)(F)F)c(Cl)c2)NC(=O)CN(C)C(=O)[C@H](Cc2ccc(C)cc2)N(CCC(F)(F)F)C(=O)[C@@H]2CCN2C(=O)[C@H](C)N(C)C1=O [PP0091] ([NMeL]I[NMeA][Aze][X36][Sar][hPhe(3-Cl-4-CF3)]P[Ac5c][NMeGly(cPent)][NMeD]-Morpholide; lactam N-11) |  | C (A compound having a KD ratio of 0.1 or more and less than 3 is denoted as C) | B (a compound having 3 or more and less than 10 is denoted as B) | 0.23 nM |  |  |  | 
10 | CC[C@H](C)[C@@H]1NC(=O)[C@H](CC(C)C)N(C)C(=O)C[C@@H](C(=O)N2CCOCC2)N(C)C(=O)[C@H](C2CCCC2)N(C)C(=O)C2(CCCC2)NC(=O)[C@@H]2CCCN2C(=O)[C@H](CCc2ccc(C(F)(F)F)c(Cl)c2)NC(=O)CN(C)C(=O)[C@H](Cc2ccc(Cl)cc2)N2CC=CC[C@@H](C2=O)N(C)C(=O)CN(C)C1=O [PP0533] |  |  |  | 0.17 nM | C (A compound having a KD ratio of 0.1 or more and less than 3 is denoted as C) | C (A compound having a KD ratio of 0.1 or more and less than 3 is denoted as C) |  | 
11 | CCCN1C(=O)CN(C)C(=O)[C@@H]2CCN2C(=O)[C@H](C2CC(F)(F)C2)NC(=O)[C@H](CC(C)C)N(C)C(=O)C[C@@H](C(=O)N2CCOCC2)N(C)C(=O)[C@H](C2CCCC2)N(C)C(=O)C2(CCCC2)NC(=O)[C@@H]2CCCN2C(=O)[C@H](CCc2cc(F)c(C(F)(F)F)c(F)c2)NC(=O)CN(C)C(=O)[C@@H]1Cc1ccc(C(F)(F)F)cc1 [PP0786] ([NMeL][X13][Aze][Sar][NPrPhe(4-CF3)][Sar][hPhe(3,5-F2-4-CF3)]P[Ac5c][NMeGly(cPent)][NMeD]-Morpholide; lactam N-11) |  |  |  | 0.6 nM | B (a compound having 3 or more and less than 10 is denoted as B) | B (a compound having 3 or more and less than 10 is denoted as B) |  | 
12 | CCC(CC)[C@H]1C(=O)N(C)[C@H](C(=O)N(C)C)CC(=O)N(C)[C@@H](COC)C(=O)N[C@@H]([C@@H](C)CC)C(=O)N(C)CC(=O)N(C)[C@H]2C/C=C\CCN(C2=O)[C@@H](Cc2ccc(C)cc2)C(=O)N(C)CC(=O)N[C@@H](CCc2ccc(Cl)c(Cl)c2)C(=O)N2C[C@H](OC3CCCC3)C[C@H]2C(=O)N(C)C2(CC(C)(C)C2)C(=O)N1C [PP2818] |  |  |  | 0.88 nM |  |  | A (a compound having 10 or more and less than 20 is denoted as A) | A (a compound having 10 or more and less than 20 is denoted as A)
